Entries after “also recorded” stand apart in the source; their conditions may differ. Read-outs that look alike come from different tables or passages of the source.
What was measured:
Format in all cases: cell-based
[1] = test system: panel of solid tumor and hematopoietic cancer cell lines; test: MTT proliferation assay, panel of solid tumor and hematopoietic cancer cell lines
Method: (§1) In one study, in vitro cytotoxicity of a PPARγ agonist with a favorable toxicity profile (pioglitazone [Actos®]) was tested against two PPARγ antagonists (T0070907 and GW9662) in a panel of solid tumor and hematopoietic cancer cell lines, using an MTT proliferation assay.
(§2) In one exemplary method, stock solutions of the above referenced agents were dissolved in 50:50 DMSO:DMF and then diluted into cell growth medium. Concentrations of 2-40 micromolar over 5-7 days provided significant growth inhibition for a range of hematopoietic (NHL & MM) and epithelial lines (renal cell, colon, breast). […] Also, both antagonists were dissolved in a cyclodextrin-propylene glycol vehicle and administered to mice at doses of 7.5-15 mg/kg intraperitoneally daily for 3 weeks with mild-moderate toxicity.

solid tumor lines = test: MTT proliferation assay, solid tumor lines
Method: as §1, §2

[2] = test system: Hematopoietic (NHL and MM) cell lines; test: MTT proliferation assay, hematopoietic (NHL and MM) cell lines; conditions: unit printed only in the preceding sentence
Method: as §1, §2

Row | IC50 (solid tumor lines; MTT proliferation assay, range across solid tumor lines, read-out: IC50 in solid tumor lines (range over lines)) | IC50 (solid tumor lines; mean±SD across solid tumor lines, read-out: IC50 in solid tumor lines, mean±SD) | Structure (SMILES) | effect of combination with the agonist pioglitazone on growth inhibition of cancer cell lines [1] | relative potency ([1]; comparison of IC50 values) | IC50 ([2]; MTT proliferation assay, range across NHL and MM lines, read-out: IC50 in hematopoietic (NHL and MM) cell lines (range over lines)) | IC50 ([2]; mean±SD across NHL and MM lines, read-out: IC50 in hematopoietic (NHL and MM) cell lines, mean±SD)
1 | – | – | O=C(Nc1ccncc1)c1cc([N+](=O)[O-])ccc1Cl [T0070907] | additive increases in growth inhibition; also recorded: additive effects | more potent than GW9662 | – | –
2 | – | – | O=C(Nc1ccccc1)c1cc([N+](=O)[O-])ccc1Cl [GW9662] | additive increases in growth inhibition; also recorded: additive effects | – | – | –
3 | ≥ 11.1 µM | 60.1 ± 28.1 µM | CCc1ccc(CCOc2ccc(CC3SC(=O)NC3=O)cc2)nc1 (stereo not shown) [pioglitazone] | – | – | 82 to 125 µM | 101 ± 17.7 µM

Source: US20060217425A1, “Methods of treating cancer using PPAR-gamma antagonists” (priority 2005, published 2006)
